Results published in patent publication US4791139A, “Diphenyl ether derivatives and their use as insecticides” (Imperial Chemical Industries PLC, priority 1986, dated 1988).

Assays:
Assay type in all cases: in vivo
[1] = test system: Musca domestica (houseflies - adults); assay: Contact test, houseflies - adults (MD), Cotton wool/sugar; conditions: 24 h, 1 day, read-out: MD grading of mortality
Procedure: (§1) The activity of the Product was determined using a variety of insect pests. The Product was used in the form of liquid preparations containing from 100 to 500 parts per million (ppm) by weight of the Product. The preparations were made by dissolving the Product in acetone and diluting the solutions with water containing 0.1% by weight of a wetting agent sold under the trade name "SYNPERONIC" NX until the liquid preparations contained the required concentration of the Product. "SYNPERONIC" is a Registered Trade Mark. The test procedure adopted with regard to each pest was basically the same and comprised supporting a number of the pests on a medium which was usually a host plant or a foodstuff on which the pests feed, and treating either or both the pests and the medium with the preparations. The mortality of the pests was then assessed at periods usually varying from one to seven days after the treatment.

[2] = test system: Spodoptera exigua (lesser army worm - larvae); assay: Residual test, lesser army worm - larvae (SP), Cotton leaf; conditions: 72 h, 3 days, read-out: SP grading of mortality
Procedure: (§2) The activity of the Product was determined using a variety of insect pests. The Product was used in the form of liquid preparations containing from 100 to 500 parts per million (ppm) by weight of the Product. The preparations were made by dissolving the Product in acetone and diluting the solutions with water containing 0.1% by weight of a wetting agent sold under the trade name "SYNPERONIC" NX until the liquid preparations contained the required concentration of the Product. "SYNPERONIC" is a Registered Trade Mark.
(§3) The test procedure adopted with regard to each pest was basically the same and comprised supporting a number of the pests on a medium which was usually a host plant or a foodstuff on which the pests feed, and treating either or both the pests and the medium with the preparations. The mortality of the pests was then assessed at periods usually varying from one to seven days after the treatment.
(§4) The results of the tests are given in Table III for each of the Products, at the rate in parts per million given in the second column as a grading of mortality designated as A, B or C wherein A indicates 80-100% mortality or knockdown (70-100% for Meloidogyne incognita), B indicates 50-79% mortality knockdown or knockdown (50-69% for Meloidogyne incognita) and C indicates less than 50% mortality or knockdown.
(§5) In Table III the pest organism used is designated by a letter code and the pests species, the support medium or food, and the type and duration of test is given in Table II.
(lesser army worm - larvae)

[3] = test system: Musca domestica (houseflies - adults); assay: Knockdown test, houseflies - adults (MD/KD), Cotton wool/sugar; conditions: 4 hours, read-out: MD/KD grading of knockdown
Procedure: as §2, §3
In the case of the species Musca domestica (housefly), an additional assessment to determine the knockdown effect of the compounds was performed.
as §5

[4] = test system: Nilaparvata lugens (brown plant hopper - nymphs); assay: Contact test, brown plant hopper - nymphs (NL), Rice plant; conditions: 72 h, 3 days, read-out: NL grading of mortality
Procedure: as §1

[5] = test system: Myzus persicae (aphids); assay: Contact test, aphids (MP), Chinese Cabbage leaf; conditions: 72 h, 3 days, read-out: MP grading of mortality
Procedure: as §1, with “treatment. […] In Table III the pest organism used is designated by a letter code and the pests species, the support medium or food, and the type and duration of test is given in Table II.” for “treatment.”

[6] = test system: Diabrotica balteata (rootworm larvae); assay: Residual test, rootworm larvae (DB), Filter paper/maize seed; conditions: 72 h, 3 days, read-out: DB grading of mortality
Procedure: as §1

[7] = test system: Tetranychus urticae (spider mites - adult); assay: Contact test, spider mites - adult (TUa), French bean leaf; conditions: 72 h, 3 days, read-out: TUA grading of mortality
Procedure: as §1

[8] = test system: Heliothis virescens (tobacco budworm - larvae); assay: Residual test, tobacco budworm - larvae (HV), Cotton leaf; conditions: 72 h, read-out: HV grading of mortality
Procedure: as §2, §3, §4, §5
(tobacco budworm - larvae)

[9] = test system: Blattella germanica (cockroach nymphs); assay: Residual test, cockroach nymphs (BG), Plastic pot; conditions: 72 h, 3 days, read-out: BG grading of mortality
Procedure: as §1

[10] = test system: Meloidogyne incognita (Tomato root knot eelworm - larvae); assay: Residual test, Tomato root knot eelworm - larvae (MI), Semi in-vitro; conditions: 168 h, application rate is half that recorded, 7 days, read-out: MI grading of mortality; for mortality at 250 µg/mL: rate column 500 ppm; for mortality at 125 µg/mL: rate 250 ppm
[11] = test system: Tetranychus urticae (spider mites - ova); assay: Contact test, spider mites - ova (TUe), French bean leaf; conditions: 144 h, 6 days, read-out: TUE grading of mortality
Procedure: as §1

Compound | mortality at 500 ppm [1] | mortality at 500 ppm [2] | pest or weed control at 500 ppm [3] | mortality at 500 ppm [4] | mortality at 500 ppm [5] | mortality at 500 ppm [6] | mortality at 500 ppm [7] | mortality at 500 ppm [8] | mortality at 500 ppm [9] | mortality at 250 µg/mL [10] | mortality at 500 ppm [11] | also measured
COc1ccc(C(=CCCc2cccc(Oc3ccccc3)c2)C(F)(F)F)cc1 [Compound 46, 1,1,1-Trifluoro-2-(4-methoxyphenyl)-5-(3-phenoxyphenyl)pent-2-ene] | < 50% | < 50% | < 50% | < 50% | < 50% | < 50% | < 50% | 80 to 100% | < 50% | < 50% | < 50% | 
COc1ccc(C(CCCc2cccc(Oc3ccccc3)c2)C(F)(F)F)cc1 (racemic) [Compound 49, 1,1,1-Trifluoro-2-(4-methoxyphenyl)-5-(3-phenoxyphenyl)pentane] | 80 to 100% | 80 to 100% | 80 to 100% | 80 to 100% | 80 to 100% | < 50% | < 50% | 80 to 100% | < 50% | < 50% | < 50% | 
Fc1ccc(C=CC=C(c2ccc(OC(F)(F)F)cc2)C(F)F)cc1Oc1ccccc1 [Compound 77, 1,1-difluoro-2-(4-trifluoromethoxyphenyl)-5-(4-fluoro-3-phenoxyphenyl)penta-2,4-diene] | < 50% | 80 to 100% | < 50% | 80 to 100% | 80 to 100% | 80 to 100% | < 50% | 80 to 100% | < 50% | 50 to 69% | < 50% | 
CCOc1ccc(C(CCCc2cccc(Oc3ccccc3)c2)C(F)(F)Cl)cc1 (racemic) [Compound 69, 1,1-Difluoro-1-chloro-2-(4-ethoxyphenyl)-5-(3-phenoxyphenyl)pentane] | 80 to 100% | 80 to 100% | < 50% | 80 to 100% | 80 to 100% | 80 to 100% | < 50% | 80 to 100% | 80 to 100% | < 50% | < 50% | 
Fc1ccc(C(=CCCc2cccc(Oc3ccccc3)c2)C(F)(F)F)cc1 [Compound 47, 1,1,1-Trifluoro-2-(4-fluorophenyl)-5-(3-phenoxyphenyl)pent-2-ene] |  |  |  |  |  |  |  |  |  |  |  | mortality at 250 ppm [1]: < 50%; mortality at 250 ppm [2]: 50 to 79%; pest or weed control at 250 ppm [3]: < 50%; mortality at 250 ppm [4]: < 50%; mortality at 250 ppm [5]: < 50%; mortality at 250 ppm [6]: 50 to 79%; mortality at 250 ppm [7]: < 50%; mortality at 250 ppm [8]: < 50%; mortality at 250 ppm [9]: 50 to 79%; mortality at 125 µg/mL [10]: 50 to 69%; mortality at 250 ppm [11]: < 50%
FC(F)(F)C(=CCCc1cccc(Oc2ccccc2)c1)c1ccc2c(c1)CCC2 [Compound 48, 1,1,1-Trifluoro-2-(5-indanyl)-5-(3-phenoxyphenyl)pent-2-ene] |  |  |  |  |  |  |  |  |  |  |  | mortality at 250 ppm [1]: < 50%; mortality at 250 ppm [2]: < 50%; pest or weed control at 250 ppm [3]: < 50%; mortality at 250 ppm [4]: < 50%; mortality at 250 ppm [5]: < 50%; mortality at 250 ppm [6]: 50 to 79%; mortality at 250 ppm [7]: < 50%; mortality at 250 ppm [8]: < 50%; mortality at 250 ppm [9]: 50 to 79%; mortality at 125 µg/mL [10]: < 50%; mortality at 250 ppm [11]: < 50%
Fc1cc(C(CCCc2cccc(Oc3ccccc3)c2)C(F)(F)F)cc(F)c1OC(F)(F)F (racemic) [Compound 71, 1,1,1-Trifluoro-2-(3,5-difluoro-4-trifluoromethoxyphenyl)-5-(3-phenoxyphenyl)pentane] | < 50% | 80 to 100% | < 50% | 50 to 79% | 80 to 100% | 80 to 100% | < 50% | 80 to 100% | < 50% | 70 to 100% | < 50% | 
CCOc1ccc(C(=CCCc2cccc(Oc3ccccc3)c2)C(F)(F)F)cc1F [Compound 50, 1,1,1-Trifluoro-2-(3-fluoro-4-ethoxyphenyl)-5-(3-phenoxyphenyl)-pent-2-ene] |  |  |  |  |  |  |  |  |  |  |  | mortality at 450 ppm ([1]; 450 ppm): 80 to 100%; mortality at 450 ppm ([2]; 450 ppm): 80 to 100%; pest or weed control at 450 ppm ([3]; 450 ppm): 80 to 100%; mortality at 450 ppm ([4]; 450 ppm): < 50%; mortality at 450 ppm ([5]; 450 ppm): 80 to 100%; mortality at 450 ppm ([6]; 450 ppm): 80 to 100%; mortality at 450 ppm ([7]; 450 ppm): < 50%; mortality at 450 ppm [8]: 80 to 100%; mortality at 450 ppm ([9]; 450 ppm): 80 to 100%; mortality at 225 µg/mL ([10]; rate column 450 ppm): < 50%; mortality at 450 ppm ([11]; 450 ppm): < 50%
CCOc1ccc(C(=CC=Cc2cccc(Oc3ccccc3)c2)C(F)F)cc1 [Compound 65, 1,1-Difluoro-2-(4-ethoxyphenyl)-5-(3-phenoxyphenyl)penta-2,4-diene] | < 50% | < 50% | < 50% | < 50% | < 50% | < 50% | < 50% | < 50% | < 50% | < 50% | < 50% | 
CCOc1c(F)cc(C(=CCCc2cccc(Oc3ccccc3)c2)C(F)(F)F)cc1F [Compound 51, 1,1,1-Trifluoro-2-(3,5-difluoro-4-ethoxyphenyl)-5-(3-phenoxyphenyl)pent-2-ene] | 80 to 100% | 80 to 100% | 80 to 100% | < 50% | 80 to 100% | 80 to 100% | < 50% | 80 to 100% | 80 to 100% | < 50% | < 50% | 
